Measurements taken from patent publication US20060009478A1, “Methods for the treatment of back pain” (priority 2003, published 2006).

Test system: patients with moderate to severe chronic low back pain
Assay: Pain intensity (daily diary, 11-point numerical scale), low back pain study with titration and 12-week fixed-dose period
Format: in vivo, human
Settings: for Pain intensity, change from baseline, MEAN (SD) / Pain intensity, percent change from baseline, MEAN (SD) / Pain intensity, actual value, MEAN (SD): LOCF imputation, average of last three days of dosing week; for Pain intensity, change from baseline, MEAN (SD) / Pain intensity, percent change from baseline, MEAN (SD) / Pain intensity, change from baseline, MAXIMUM / Pain intensity, change from baseline, MEDIAN / Pain intensity, change from baseline, MINIMUM / Pain intensity, percent change from baseline, MAXIMUM / Pain intensity, percent change from baseline, MEDIAN / Pain intensity, percent change from baseline, MINIMUM / Pain intensity, actual value, MEAN (SD) / Pain intensity, actual value, MAXIMUM / Pain intensity, actual value, MEDIAN / Pain intensity, actual value, MINIMUM: ITT population
Method: A multicenter, randomized, double-blind, active- and placebo-controlled study was designed and conducted.
In addition, adverse events and opioid-related adverse events were to be recorded in the daily diary.
For the pain intensity (PI) scale assessment, the patient was prompted with the question “How would you rate your overall pain intensity at this time?” and the PI score was recorded in the clinic at the Screening and Baseline Visits. Pain intensity was also assessed by prompting the patient with the questions “How would you rate your overall pain intensity during the past 24 hours?” and a daily PI diary score was recorded at bedtime. For both Pain Intensity prompts, the response was scored on an 11-point numerical scale (0=no pain and 10=severe pain).
The baseline average daily pain intensity score for each patient was calculated as the average of the daily bedtime pain intensity scores recorded during the 3 days immediately prior to baseline/start of titration period visit. The post-baseline average daily pain intensity scores were calculated as the average of the daily bedtime pain intensity scores recorded during the last 3 days of dosing prior to each visit. Missing data was imputed using the last-observation-carried-forward (LOCF) approach for efficacy variables in the fixed-dose period. If the first visit in the fixed-dose period was missing, the last value in the titration period was imputed forward. Unless indicated, all testing of statistical significance was two-sided, and a difference resulting in a p-value of equal to or less than 0.05 was considered statistically significant.
A primary efficacy endpoint was the percent change from baseline to the end of the fixed-dose period (Week 12) in average daily pain intensity. The percent change from baseline was calculated as [PI(baseline)−PI(fixed-dose)]/PI(baseline)*100. Data was summarized descriptively by treatment group. An analysis of covariance (ANCOVA) model including treatment and center as effects and baseline pain intensity as the covariate was used for global and pairwise inferences. Separate models were used to evaluate both the treatment by center and treatment by baseline pain intensity interaction terms.
A primary comparison of interest was oxycodone and naltrexone (e.g., BID or QID) versus oxycodone (e.g., QID). Secondary analyses included actual and percent change from baseline values of daily pain index, SF-12, and Oswestry disability index summarized descriptively by treatment group for both the titration and fixed-dose periods. Treatments were compared globally and in pairwise fashion at each visit in the fixed-dose period using an ANCOVA model that included treatment and center as effects and baseline pain intensity as the covariate. Separate models were used to evaluate both the treatment by center and treatment by baseline pain intensity interaction terms.

[1] = baseline to fixed dose week 1, LOCF
[2] = baseline to fixed dose week 2, LOCF
[3] = baseline to fixed dose week 3, LOCF
[4] = baseline to fixed dose week 4, LOCF
[5] = baseline to fixed dose week 5, LOCF
[6] = baseline to fixed dose week 6, LOCF

COc1ccc2c3c1O[C@H]1C(=O)CC[C@@]4(O)[C@@H](C2)N(C)CC[C@]314 [OXY QID, oxycodone]
Pain intensity, change from baseline, MEAN (SD) (baseline to fixed dose week 1): −3.6 (2.60) | Pain intensity, percent change from baseline, MEAN (SD) (baseline to fixed dose week 1): −47.5 (33.12) percent | Pain intensity, change from baseline, MAXIMUM [1]: 3.0 | Pain intensity, change from baseline, MEDIAN [1]: −3.7 | Pain intensity, change from baseline, MINIMUM [1]: −9.7 | Pain intensity, percent change from baseline, MAXIMUM [1]: 42.9% | Pain intensity, percent change from baseline, MEDIAN [1]: −52.4% | Pain intensity, percent change from baseline, MINIMUM [1]: −100.0% | Pain intensity, change from baseline, MEAN (SD) (baseline to fixed dose week 2): −3.6 (2.59) | Pain intensity, percent change from baseline, MEAN (SD) (baseline to fixed dose week 2): −47.1 (32.56) percent | Pain intensity, change from baseline, MAXIMUM [2]: 3.0 | Pain intensity, change from baseline, MEDIAN [2]: −3.7 | Pain intensity, change from baseline, MINIMUM [2]: −9.7 | Pain intensity, percent change from baseline, MAXIMUM [2]: 42.9% | Pain intensity, percent change from baseline, MEDIAN [2]: −50.0% | Pain intensity, percent change from baseline, MINIMUM [2]: −100.0% | Pain intensity, change from baseline, MEAN (SD) (baseline to fixed dose week 3): −3.7 (2.64) | Pain intensity, percent change from baseline, MEAN (SD) (baseline to fixed dose week 3): −47.9 (33.29) percent | Pain intensity, change from baseline, MAXIMUM [3]: 3.0 | Pain intensity, change from baseline, MEDIAN [3]: −4.0 | Pain intensity, change from baseline, MINIMUM [3]: −9.7 | Pain intensity, percent change from baseline, MAXIMUM [3]: 42.9% | Pain intensity, percent change from baseline, MEDIAN [3]: −54.2% | Pain intensity, percent change from baseline, MINIMUM [3]: −100.0% | Pain intensity, change from baseline, MEAN (SD) (baseline to fixed dose week 4): −3.6 (2.68) | Pain intensity, percent change from baseline, MEAN (SD) (baseline to fixed dose week 4): −47.4 (33.84) percent | Pain intensity, change from baseline, MAXIMUM [4]: 3.0 | Pain intensity, change from baseline, MEDIAN [4]: −4.0 | Pain intensity, change from baseline, MINIMUM [4]: −9.7 | Pain intensity, percent change from baseline, MAXIMUM [4]: 42.9% | Pain intensity, percent change from baseline, MEDIAN [4]: −53.3% | Pain intensity, percent change from baseline, MINIMUM [4]: −100.0% | Pain intensity, change from baseline, MEAN (SD) (baseline to fixed dose week 5): −3.6 (2.72) | Pain intensity, percent change from baseline, MEAN (SD) (baseline to fixed dose week 5): −47.4 (34.44) percent | Pain intensity, change from baseline, MAXIMUM [5]: 3.0 | Pain intensity, change from baseline, MEDIAN [5]: −4.0 | Pain intensity, change from baseline, MINIMUM [5]: −9.7 | Pain intensity, percent change from baseline, MAXIMUM [5]: 42.9% | Pain intensity, percent change from baseline, MEDIAN [5]: −52.4% | Pain intensity, percent change from baseline, MINIMUM [5]: −100.0% | Pain intensity, change from baseline, MEAN (SD) (baseline to fixed dose week 6): −3.6 (2.70) | Pain intensity, change from baseline, MAXIMUM [6]: 3.0 | Pain intensity, change from baseline, MEDIAN [6]: −4.0 | Pain intensity, change from baseline, MINIMUM [6]: −9.7 | Pain intensity, actual value, MEAN (SD) (fixed dose week 1): 3.9 (2.53) | Pain intensity, actual value, MAXIMUM (fixed dose week 1, LOCF): 10.0 | Pain intensity, actual value, MEDIAN (fixed dose week 1, LOCF): 3.7 | Pain intensity, actual value, MINIMUM (fixed dose week 1, LOCF): 0.0 | Pain intensity, actual value, MEAN (SD) (fixed dose week 2): 3.9 (2.47) | Pain intensity, actual value, MAXIMUM (fixed dose week 2, LOCF): 10.0 | Pain intensity, actual value, MEDIAN (fixed dose week 2, LOCF): 3.7 | Pain intensity, actual value, MINIMUM (fixed dose week 2, LOCF): 0.0 | Pain intensity, actual value, MEAN (SD) (fixed dose week 3): 3.9 (2.52) | Pain intensity, actual value, MAXIMUM (fixed dose week 3, LOCF): 10.0 | Pain intensity, actual value, MEDIAN (fixed dose week 3, LOCF): 3.3 | Pain intensity, actual value, MINIMUM (fixed dose week 3, LOCF): 0.0 | Pain intensity, actual value, MEAN (SD) (fixed dose week 4): 3.9 (2.55) | Pain intensity, actual value, MAXIMUM (fixed dose week 4, LOCF): 10.0 | Pain intensity, actual value, MEDIAN (fixed dose week 4, LOCF): 3.3 | Pain intensity, actual value, MINIMUM (fixed dose week 4, LOCF): 0.0 | Pain intensity, actual value, MEAN (SD) (fixed dose week 5): 3.9 (2.59) | Pain intensity, actual value, MAXIMUM (fixed dose week 5, LOCF): 10.0 | Pain intensity, actual value, MEDIAN (fixed dose week 5, LOCF): 3.3 | Pain intensity, actual value, MINIMUM (fixed dose week 5, LOCF): 0.0 | Pain intensity, actual value, MEAN (SD) (fixed dose week 6): 3.9 (2.58) | Pain intensity percent change from baseline to fixed dose week 6, maximum (fixed dose week 6, LOCF, ITT): 42.9% | Pain intensity percent change from baseline to fixed dose week 6, mean (SD) (fixed dose week 6, LOCF, ITT): −47.5 (34.20) % | Pain intensity percent change from baseline to fixed dose week 6, median (fixed dose week 6, LOCF, ITT): −51.9% | Pain intensity percent change from baseline to fixed dose week 6, minimum (fixed dose week 6, LOCF, ITT): −100.0% | Pain intensity, actual value, MAXIMUM (fixed dose week 6, LOCF): 10.0 | Pain intensity, actual value, MEDIAN (fixed dose week 6, LOCF): 3.3 | Pain intensity, actual value, MINIMUM (fixed dose week 6, LOCF): 0.0
